In PubChem BioAssay (NCI):
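Grown in 96-well plates, cells were treated for 48 hours with each compound at five concentrations. Insufficient inhibition: endpoint recorded as highest concentration tested. GI50: concentration for 50% inhibition of growth. TGI: concentration producing complete growth inhibition.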

Assays:
Test in all cases: NCI tumour cell line growth inhibition, 48 h
[1] = test system: K-562 leukemia
[2] = test system: SF-539 CNS
[3] = test system: EKVX NSCLC
[4] = test system: UACC-62 melanoma
[5] = test system: OVCAR-4 ovarian
[6] = test system: BT-549 breast
[7] = test system: UO-31 renal
[8] = test system: HL-60(TB) leukemia
[9] = test system: NCI-H226 lung
[10] = test system: NCI-H522 lung
[11] = test system: UACC-257 melanoma
[12] = test system: A549 NSCLC
[13] = test system: ACHN renal
[14] = test system: SK-OV-3 ovarian
[15] = test system: DU-145 prostate
[16] = test system: HS 578T breast
[17] = test system: HOP-62 NSCLC
[18] = test system: HOP-92 NSCLC
[19] = test system: KM12 colon
[20] = test system: CAKI-1 renal
[21] = test system: OVCAR-3 ovarian
[22] = test system: HCC-2998 colon
[23] = test system: SNB-75 CNS
[24] = test system: MDA-MB-231 breast
[25] = test system: RPMI-8226 leukemia
[26] = test system: SN12C renal
[27] = test system: MCF7 breast
[28] = test system: SK-MEL-28 melanoma
[29] = test system: COLO 205 colon

Structure (SMILES): C[C@@H]1COCCN1c1cc(C2([S@@](C)(=N)=O)CC2)nc(-c2ccnc3[nH]ccc23)n1
- TGI [1]: > 100 µM
- GI50 [2]: 2.32 µM
- TGI [2]: 10.6 µM
- GI50 [3]: 5.78 µM
- TGI [3]: 67.4 µM
- GI50 [4]: 4.29 µM
- TGI [4]: 36.6 µM
- GI50 [5]: 3.41 µM
- TGI [5]: 63.9 µM
- GI50 [6]: 2.68 µM
- TGI [6]: 23.7 µM
- GI50 [7]: 4 µM
- TGI [7]: 50 µM
- GI50 [8]: 3.87 µM
- TGI [8]: 41.5 µM
- GI50 [9]: 4.26 µM
- TGI [9]: 98.7 µM
- GI50 [10]: 8.05 µM
- TGI [10]: > 100 µM
- GI50 [11]: 14.6 µM
- TGI [11]: > 100 µM
- GI50 [12]: 4.27 µM
- TGI [12]: > 100 µM
- GI50 [13]: 2.17 µM
- TGI [13]: > 51.3 µM
- GI50 [14]: 2.95 µM
- TGI [14]: 27.4 µM
- GI50 [15]: 4.71 µM
- TGI [15]: > 100 µM
- GI50 [16]: 3.73 µM
- TGI [16]: 34.9 µM
- GI50 [17]: 3.74 µM
- TGI [17]: 63.6 µM
- GI50 [18]: 1.56 µM
- TGI [18]: 15.4 µM
- GI50 [19]: 5.8 µM
- TGI [19]: > 100 µM
- GI50 [20]: 11.7 µM
- TGI [20]: > 79.2 µM
- GI50 [21]: 7.07 µM
- TGI [21]: > 91.1 µM
- GI50 [22]: 4.69 µM
- TGI [22]: > 100 µM
- GI50 [23]: 2.3 µM
- TGI [23]: 28.6 µM
- GI50 [24]: 8.18 µM
- TGI [24]: > 100 µM
- GI50 [25]: 6.21 µM
- TGI [25]: > 60.9 µM
- GI50 [26]: 6.02 µM
- TGI [26]: > 100 µM
- GI50 [27]: 0.956 µM
- TGI [27]: > 100 µM
- GI50 [28]: 9.76 µM
- TGI [28]: > 88.9 µM
- GI50 [29]: 7.69 µM
- TGI [29]: > 83.1 µM
